Measurements published in PubChem BioAssay AID743396 (Broad Institute, 2014).
Activity calls are given as the source filed them.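 Rule for the calls: active = fitted curve reaches a 40% rise in fluorescent cells at or below the top valid dose; inactive = opposite-direction effect, or the rest.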

tested on: mTEFS fibroblasts autofluorescence, GFP-channel imaging, 3 days; test: compound fluorescence in GFP channel, mTEFS cells – imaging, mTEFS fibroblasts, cherry-pick, artefact control for X-chromosome reactivation project, dose response (AID 743396); details: cells pretreated with 5-aza-dC

In order of falling AC40:
1. COc1cccc(C(=O)c2c(-c3ccccc3)ncc3cc(OC)c(OC)cc23)c1  19.4 µM
2. CN1/C(=C/C=C(C#N)C#N)C(C)(C)c2ccccc21  19.4 µM
3. COC1=CC(=O)c2nc(Cl)ccc2C1=O  18.5 µM
4. CN1CCc2c(sc(NC(=O)c3ccc(S(=O)(=O)N4CCc5ccccc54)cc3)c2C(N)=O)C1  18 µM
5. COc1ccc(C(=O)c2sc3nc(C)cc(-c4cccs4)c3c2N)cc1OC  16.3 µM
6. N#Cc1ccccc1Cn1cc(/C=N/Nc2ccc([N+](=O)[O-])cn2)c2ccccc21  16.1 µM
7. Cc1c2c(cc3c1[nH]c1ccccc13)C=NCC2  15.8 µM
8. CCN1/C(=C\c2ccc3cc(C)ccc3[n+]2CC)Sc2cc(C)c(C)cc21  15.7 µM
9. O=C(NCc1ccccc1)c1cccc2c1C(=O)c1ccc(/C=C/c3ccccc3)cc1S2(=O)=O  15 µM
10. Cc1cccc(-c2cccc3[nH]c4c(c23)CCN2C(=O)[C@H]3[C@H](C)ON(C)[C@H]3C[C@@H]42)c1  14.7 µM
11. COc1ccc(N(C)S(=O)(=O)c2cccc(C(=O)NCC(c3cccs3)N(C)C)c2)cc1 (configuration not stated)  13.9 µM
12. Cc1cc(N/N=C/c2ccc([N+](=O)[O-])o2)nc2ccccc12  13.8 µM
13. CCN(CC)c1ccc(/C=C/c2cc(-c3ccccc3)c3ccccc3n2)cc1  12.8 µM
14. CCOC(=O)/C(=C/C=C1\Sc2cc(C)c(C)cc2N1CC)C(C)=O  12.5 µM
15. Cc1[nH]c2ccccc2c1/C=N/Nc1ccc([N+](=O)[O-])cc1  12.2 µM
16. CCN(CC)c1ccc2cc(C(=O)c3cccs3)c(=O)oc2c1  11.3 µM
17. Cn1c(=O)[nH]c(=O)c2c1nc(SCCN1CCOCC1)n2CCCc1ccccc1  10.9 µM
18. Nc1c(C(=O)Nc2ccc(S(=O)(=O)N3CCCC3)cc2)sc2nc3cc4c(cc3cc12)CCC4  10.6 µM
19. CC1CN(C(=O)/C=C/c2ccc([N+](=O)[O-])s2)CC(C)O1 (configuration not stated)  10.6 µM
20. Cc1cccc2cc3c(N)c(C(=O)N4CCc5ccccc54)sc3nc12  10.5 µM
21. Nc1c(C(=O)c2ccccc2)sc2nsc(SCCN3CCCC3)c12  10.5 µM
22. CCN1/C(=C/c2ccc3cc(C)cc(C)c3[n+]2CC)Sc2cc(C)ccc21  10.4 µM
23. Cc1cccc2cc3c(N)c(C(=O)N4CCCc5ccccc54)sc3nc12  10.2 µM
24. Nc1[nH]c2cc([N+](=O)[O-])ccc2c1-c1ccccn1  8.95 µM
25. O=CNc1ccc2c3c(cccc13)-c1ccccc1-2  8.57 µM
26. Cc1ccc(NC(=O)/C=C/c2ccc([N+](=O)[O-])s2)c(C)c1  7.81 µM
27. CCc1cccc2cc3c(N)c(C(=O)Nc4ccc(S(=O)(=O)N5CCCC5)cc4)sc3nc12  7.09 µM
28. N#CC(C#N)=C1C=C2C=C(N3CCCCCC3)CCC2CC1 (configuration not stated)  6.6 µM
29. COc1ccc(Cn2cc3c(-c4ccc(F)cc4)nnc-3c3cc(OC)c(OC)cc32)cc1  6.18 µM
30. CC(C)CCN1C(=O)c2cccc3c(N)ccc(c23)C1=O  5.86 µM
31. N#C/C(=C/c1ccc(N2CCCCC2)o1)C(=O)NCCc1c[nH]c2ccccc12  5.61 µM
32. CCN(CC)c1ccc(/C=C(/C#N)C(=O)NCc2ccccc2)o1  5.55 µM
33. COc1ccc2nc(C)cc(NCc3ccc(F)cc3)c2c1  4.85 µM
34. CC1=NN(c2nc(N)nc(/C(C#N)=C/c3ccc([N+](=O)[O-])o3)n2)C(C)(C)C1  4.78 µM
35. Cc1oc2ccc(NS(=O)(=O)c3cccc4cccnc34)cc2c1C(=O)OC(C)C  4.77 µM
36. Cc1ccc(NC(=O)/C=C/c2ccc([N+](=O)[O-])s2)cc1  4.44 µM
37. CCOC(=O)/C=c1\s/c(=C\c2ccc3cc(OC)ccc3c2)c(=O)n1CC(=O)NCc1ccc2c(c1)OCO2  4.43 µM
38. COc1cc2c3nnc(-c4ccc(F)cc4)c-3cn(Cc3ccccc3)c2cc1OC  3.67 µM
39. COc1cc2c3nnc(-c4ccc(F)cc4)c-3cn(Cc3cccc(C)c3)c2cc1OC  3.63 µM
40. CC(=O)Nc1sc(/C(C#N)=C/c2ccc(Cl)c(Cl)c2)nc1-c1ccc(C)cc1  3.55 µM
41. O=[N+]([O-])c1ccc(C2=NN(c3ccccc3)C(c3ccco3)C2)cc1 (configuration not stated)  2.59 µM
42. c1ccc(-c2cnn3c(-c4ccccc4)c(-c4ccccc4)nc3n2)cc1  2.58 µM
43. Nc1c(C(=O)c2cccs2)sc2nsc(SCCN3CCCCC3)c12  2.03 µM
44. COc1ccc(-[n+]2c(C)cc(/C=C3\Sc4ccccc4N3C)cc2C)cc1  1.58 µM
45. C/C(=N\Nc1ncnc2sc(C)c(C)c12)c1ccccn1  1.55 µM
46. N#C/C(=C/c1ccc(N2CCCCC2)o1)C(=O)Nc1ccc2ccccc2c1  1.53 µM
47. Nc1ccc2c3c(cccc13)-c1ccccc1-2  1.49 µM
48. CCN1/C(=C\c2ccc3ccccc3[n+]2CC)Sc2cc(C)ccc21  0.582 µM
49. CCN1CCc2c(sc(NC(=O)Nc3ccc(Cl)c(Cl)c3)c2C(N)=O)C1  0.558 µM
50. CCN1/C(=C/C=C/c2oc3ccc(-c4ccccc4)cc3[n+]2CC)Oc2ccc(-c3ccccc3)cc21  0.00627 µM

CC(NC(=O)/C(C#N)=C/c1ccc([N+](=O)[O-])o1)c1ccccc1 (configuration not stated) was tested, and the AC40 was > 19.5 µM (inactive).
With CCOC(=O)Cn1c(=O)c(-c2cc(Br)ccc2N)nc2ccccc21 the AC40 was > 19.5 µM (inactive).
COC(=O)C1=C(C)NC(C)=C(C(=O)OC)C1C(=O)OCC(=O)c1ccc(F)cc1 was tested, and the AC40 was > 19.5 µM (inactive).
In the case of C[C@H]1CN([C@@H](C)CO)S(=O)(=O)c2ccc(Br)cc2O[C@H]1CN(C)C(=O)c1cccnc1, the AC40 was > 6.8 µM (inactive).
For Nc1c(Br)cc2c3c(cccc13)-c1ccccc1-2, the AC40 was > 19.5 µM (inactive).
In the case of CCN1C(=O)[C@@H]2Cc3c([nH]c4ccccc34)C(c3cc(OC)c(OC)c(OC)c3)N2C1=S (some centres not stated), the AC40 was > 19.5 µM (inactive).
For Cc1nnc(N2C(=O)c3cccc4c([N+](=O)[O-])ccc(c34)C2=O)s1, the AC40 was > 19.5 µM (inactive).
O=S(=O)(Nc1cc2nc3ccccc3nc2n1Cc1ccccc1)c1ccc(Cl)cc1 was tested, and the AC40 was > 19.5 µM (inactive).
For CC(=O)Oc1cccc(N2C(=O)c3cccc4c([N+](=O)[O-])ccc(c34)C2=O)c1, the AC40 was > 19.5 µM (inactive).
For Cc1n[nH]c(=S)n(/N=C/c2cccc([N+](=O)[O-])c2)c1=O, the AC40 was > 19.5 µM (inactive).
O=c1[nH]c(=O)n([C@H]2C[C@H](O)[C@@H](CO)O2)cc1C(F)(F)F was tested, and the AC40 was > 19.5 µM (inactive).
With COc1ccc(C(=O)Nc2c(F)c(F)c(F)c(F)c2F)cc1OC the AC40 was > 19.5 µM (inactive).
CN(C)CCCN1C(=O)c2cccc3c([N+](=O)[O-])ccc(c23)C1=O was tested, and the AC40 was > 19.5 µM (inactive).
With CCOC(=O)C1=C(O)/C(=C/c2cc(OC)c(O)c(OC)c2)SC1=Nc1ccc(OC)cc1 the AC40 was > 19.5 µM (inactive).
CCN(CC)C1=CC2=CC(=C(C#N)C#N)CCC2CC1 (configuration not stated) was tested, and the AC40 was > 19.5 µM (inactive).
With CC(=O)[C@@]1(O)Cc2c(O)c3c(c(O)c2[C@H](O[C@H]2C[C@H](N)[C@H](O)[C@H](C)O2)C1)C(=O)c1ccccc1C3=O the AC40 was > 2.1 µM (inactive).
O=[N+]([O-])c1ccc(N/N=C/c2ccc[nH]2)cc1 was tested, and the AC40 was > 19.5 µM (inactive).
